According to the supplement of paper PMC10307832:

Key:
Assay in all cases: relative viability (nuclei count vs DMSO), 5 days (fraction); higher = more cells survive
[1] = tested on: NCI-H1734
Method in brief: (§1)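 A single step with final 0.05% Triton X-100, 1% formaldehyde and 1 ug/ml Hoechst fixed the cells and stained nuclei 5 days after treatment. Lung cancer cell lines in 1536-well plates had been treated by pin tool the day after seeding with one drug alone or a fixed anchor-drug dose plus five library-drug doses (not always all listed) in √10 steps, and nuclei were counted on 4× images. Relative viability is the ratio of nuclei in treated wells to nuclei in vehicle wells, taken as the median of duplicate plates.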

[2] = tested on: UMC-11
Method in brief: as §1

[3] = tested on: NCI-H2347
Method in brief: as §1

[4] = tested on: NCI-H1993
Method in brief: as §1

[5] = tested on: SK-LU-1
Method in brief: as §1

[6] = tested on: A-427
Method in brief: as §1

[7] = tested on: SW 1573
Method in brief: as §1

[8] = tested on: NCI-H1792
Method in brief: as §1

[9] = tested on: LCLC-103H
Method in brief: as §1

[10] = tested on: NCI-H2228
Method in brief: as §1

[11] = tested on: LC-2-ad
Method in brief: as §1

[12] = tested on: NCI-H1915
Method in brief: as §1

[13] = tested on: RERF-LC-KJ
Method in brief: as §1

[14] = tested on: NCI-H1975
Method in brief: as §1

[15] = tested on: NCI-H23
Method in brief: as §1

[16] = tested on: HCC-366
Method in brief: as §1

[17] = tested on: NCI-H1755
Method in brief: as §1

[18] = tested on: NCI-H1355
Method in brief: as §1

[19] = tested on: NCI-H650
Method in brief: as §1

[20] = tested on: SK-MES-1
Method in brief: as §1

[21] = tested on: HCC-827
Method in brief: as §1

SMILES: Cc1csc(=NC2CCCCC2)n1/N=C/c1ccc(O)c(O)c1O [MIM1] + C[C@]1(O)C[C@@H](c2nc(-c3ccc4ccc(-c5ccccc5)nc4c3)c3c(N)nccn32)C1 [Linsitinib] (partner 1 µM)
- relative viability ([1]; first compound 0.2 µM): 0.829
- relative viability ([1]; first compound 0.6325 µM): 1.01
- relative viability ([1]; first compound 2 µM): 0.853
- relative viability ([1]; first compound 6.325 µM): 0.754
- relative viability ([1]; first compound 20 µM): 0.422
- relative viability ([2]; first compound 0.2 µM): 1.02
- relative viability ([2]; first compound 0.6325 µM): 1.01
- relative viability ([2]; first compound 2 µM): 1.02
- relative viability ([2]; first compound 6.325 µM): 0.66
- relative viability ([2]; first compound 20 µM): 0.233
- relative viability ([3]; first compound 0.2 µM): 0.985
- relative viability ([3]; first compound 0.6325 µM): 0.994
- relative viability ([3]; first compound 2 µM): 0.98
- relative viability ([3]; first compound 6.325 µM): 0.736
- relative viability ([3]; first compound 20 µM): 0.656
- relative viability ([4]; first compound 0.2 µM): 0.736
- relative viability ([4]; first compound 0.6325 µM): 0.715
- relative viability ([4]; first compound 2 µM): 0.63
- relative viability ([4]; first compound 6.325 µM): 0.68
- relative viability ([4]; first compound 20 µM): 0.646
- relative viability ([5]; first compound 0.2 µM): 1.12
- relative viability ([5]; first compound 0.6325 µM): 1.26
- relative viability ([5]; first compound 2 µM): 1.29
- relative viability ([5]; first compound 6.325 µM): 1.03
- relative viability ([5]; first compound 20 µM): 0.996
- relative viability ([6]; first compound 0.2 µM): 1.09
- relative viability ([6]; first compound 0.6325 µM): 1.14
- relative viability ([6]; first compound 2 µM): 1.11
- relative viability ([6]; first compound 6.325 µM): 1.07
- relative viability ([6]; first compound 20 µM): 0.505
- relative viability ([7]; first compound 0.2 µM): 0.872
- relative viability ([7]; first compound 0.6325 µM): 0.792
- relative viability ([7]; first compound 2 µM): 0.678
- relative viability ([7]; first compound 6.325 µM): 0.767
- relative viability ([7]; first compound 20 µM): 0.607
- relative viability ([8]; first compound 0.2 µM): 0.551
- relative viability ([8]; first compound 0.6325 µM): 0.438
- relative viability ([8]; first compound 2 µM): 0.481
- relative viability ([8]; first compound 6.325 µM): 0.383
- relative viability ([8]; first compound 20 µM): 0.503
- relative viability ([9]; first compound 0.2 µM): 0.994
- relative viability ([9]; first compound 0.6325 µM): 1.08
- relative viability ([9]; first compound 2 µM): 1.22
- relative viability ([9]; first compound 6.325 µM): 0.999
- relative viability ([9]; first compound 20 µM): 1.05
- relative viability ([10]; first compound 0.2 µM): 0.752
- relative viability ([10]; first compound 0.6325 µM): 0.638
- relative viability ([10]; first compound 2 µM): 0.877
- relative viability ([10]; first compound 6.325 µM): 0.217
- relative viability ([10]; first compound 20 µM): 0.208
- relative viability ([11]; first compound 0.2 µM): 0.794
- relative viability ([11]; first compound 0.6325 µM): 0.744
- relative viability ([11]; first compound 2 µM): 0.856
- relative viability ([11]; first compound 6.325 µM): 0.547
- relative viability ([11]; first compound 20 µM): 0.132
- relative viability ([12]; first compound 0.2 µM): 1.09
- relative viability ([12]; first compound 0.6325 µM): 1.03
- relative viability ([12]; first compound 2 µM): 1.08
- relative viability ([12]; first compound 6.325 µM): 0.978
- relative viability ([12]; first compound 20 µM): 0.872
- relative viability ([13]; first compound 0.2 µM): 0.81
- relative viability ([13]; first compound 0.6325 µM): 0.866
- relative viability ([13]; first compound 2 µM): 0.773
- relative viability ([13]; first compound 6.325 µM): 0.473
- relative viability ([13]; first compound 20 µM): 0.287
- relative viability ([14]; first compound 0.2 µM): 0.869
- relative viability ([14]; first compound 0.6325 µM): 1.12
- relative viability ([14]; first compound 2 µM): 0.796
- relative viability ([14]; first compound 6.325 µM): 0.525
- relative viability ([14]; first compound 20 µM): 0.546
- relative viability ([15]; first compound 0.2 µM): 0.553
- relative viability ([15]; first compound 2 µM): 0.488
- relative viability ([15]; first compound 6.325 µM): 0.58
- relative viability ([15]; first compound 20 µM): 0.215
- relative viability ([16]; first compound 0.2 µM): 0.511
- relative viability ([16]; first compound 0.6325 µM): 0.715
- relative viability ([16]; first compound 2 µM): 0.565
- relative viability ([16]; first compound 6.325 µM): 0.361
- relative viability ([16]; first compound 20 µM): 0.0221
- relative viability ([17]; first compound 0.2 µM): 1.02
- relative viability ([17]; first compound 0.6325 µM): 0.996
- relative viability ([17]; first compound 2 µM): 1.03
- relative viability ([17]; first compound 6.325 µM): 0.71
- relative viability ([17]; first compound 20 µM): 0.724
- relative viability ([18]; first compound 0.2 µM): 0.812
- relative viability ([18]; first compound 0.6325 µM): 0.882
- relative viability ([18]; first compound 2 µM): 0.898
- relative viability ([18]; first compound 6.325 µM): 0.74
- relative viability ([18]; first compound 20 µM): 0.879
- relative viability ([19]; first compound 0.2 µM): 0.964
- relative viability ([19]; first compound 0.6325 µM): 0.843
- relative viability ([19]; first compound 2 µM): 0.938
- relative viability ([19]; first compound 6.325 µM): 0.824
- relative viability ([19]; first compound 20 µM): 0.234
- relative viability ([20]; first compound 0.2 µM): 0.988
- relative viability ([20]; first compound 0.6325 µM): 0.988
- relative viability ([20]; first compound 2 µM): 1.02
- relative viability ([20]; first compound 6.325 µM): 0.853
- relative viability ([20]; first compound 20 µM): 0.848
- relative viability ([21]; first compound 0.2 µM): 0.955
- relative viability ([21]; first compound 0.6325 µM): 0.971
- relative viability ([21]; first compound 2 µM): 0.959
- relative viability ([21]; first compound 6.325 µM): 0.387
- relative viability ([21]; first compound 20 µM): 0.741
